Test results from US7322369B2, “Methods of detaching microorganisms from, or of inhibiting microbial attachment to, animal or poultry carcasses or seafood or parts thereof” (priority 2000, dated 2008).
Where a name gives a salt, the structure may show the parent alone.

What was measured:
[1] = test system: bacteria bound to collagen; assay: Biosensor detachment of bacteria bound to collagen; assay type: binding; settings: 0.5M arginine, phosphoric acid 0.1M, HCl 0.1M, citric acid 0.5M
Text: Use of Guanidine, creatine and arginine: Guanidine is a strong cytotoxic compound and can not be used in large quantities in food plants or slaughter operations. […] However, its use may be limited in the laboratory for analysis of food tissues. Therefore, a substitute for guanidine for detachment of pathogens from food carcasses was investigated. Guanidine is structurally related to creatine and arginine with a guanidyl moeity in their molecules. […] It has been shown that creatine hydrolyzes upon dissolution in water or buffer converting it to creatinine (methylglycocyamidine), a cyclic product and an end product of creatine metabolism. […] Arginine is an essential amino acid for children but not for adults. It is non-essential for adults because it can be derived from proteins in the diet. It is also inexpensive and can be obtained in bulk. Phosphoric acid (0.1M), HCl (0.1M) and citric acid (0.5M) had no effect in the detachment studies.

E. coli 0157 = assay: Detachment of E. coli O157 in sandwich immunoassay (biosensor); assay type: binding; settings: sequential .75M Arginine, then 0.25 NaCl + 0.05%Tween 80
Salmonella = assay: Detachment of Salmonella in sandwich immunoassay (biosensor); assay type: binding; settings: sequential .75M Arginine, 6M Guanidine, 0.25 NaCl + 0.05% Tween 80
[2] = test system: Salmonella typhimurium Sensor Surface; assay: Biosensor inhibition of collagen binding to Salmonella typhimurium sensor surface; settings: 12 trials
E. coli O157:H7 surface = assay: Biosensor inhibition of collagen binding to E. coli O157:H7 surface; settings: 12 trials
Text: (§1) Biosensor Studies: A novel approach to study bacterial attachment to animal carcass was designed. The studies led to a development of a biosensor method to study binding of extracellular matrix components to the surface of immobilized bacteria. This novel approach utilized immobilized whole E. coli cells. This approach allowed the study of the binding of the lipopolysaccharides and other bacterial surface epitopes without altering their chemical structure. Conditions for immobilization and determination of the bacterial cell surface binding properties were initially assessed with anti-E. coli 0157:H7 antibody (Medina et al. (1997), Real-time analysis of antibody binding interactions with immobilized E. coli O157:H7, Biotechnology Techniques, Vol. 11 (3): 173-176). The bacterial surface was bound with an antibody produced against a heat-killed bacteria. […] The binding interactions of polysulfated polysaccharides such as heparan sulfate and iota, lambda and kappa carrageenans were determined with the extracellular matrix proteins (ECM) and the immobilized E. coli O157:H7 cells. […]

E. coli and Salmonella = assay: Biosensor kinetics of bacteria-collagen binding (E. coli and Salmonella pooled)
Text: as §1

bacteria = assay: Bactericidal effect; assay type: cell-based; settings: pH 2.5
Text: The present invention also includes a method of quantifying microorganisms (e.g., bacteria) on carcasses or parts thereof. To enhance detachment of microorganisms (e.g., bacteria) for sampling: Treatment of animal and poultry carcass or seafood with polysulfated polysaccharides or carboxymethyl cellulose followed by guanidine or arginine or phosphate buffer and NaCl/non-ionic surfactant may enhance detachment of microorganisms for sampling and analytical purposes. […] At pH 4.8, live bacteria may be recovered with guanidine-HCl. At pH 2.5, guanidine-HCl is bactericidal. Therefore, its use may be limited in the laboratory (FIG. 4). For “in situ” sampling in the slaughter plants, arginine, or phosphate buffer and TWEEN-80/NaCl may be used in place of guanidine (FIG. 5).
Collagen is the major component (40%) of the connective tissues. Results from the scanning electron microscopy studies illustrated the abundance of collagen strands in the fascia and connective tissues (Medina et al. (1999), Scanning Electron Microscopy Studies on Attachment of Escherichia Coli O157:H7 to Bovine Tissues, Presented at 1999 IFT Annual Meeting, Chicago, Ill., July 24-28; Poster at Gordon Research Conference on Molecular Mechanisms of Microbial Adhesions (Aug. 1-6, 1999) and at the 18th Annual Meeting of the Philippine-American Academy of Science and Engineering, Jekyll Is., Ga., Aug. 13-15, 1999). […]

Molecule: O=P(O)(O)O [Phosphoric acid]
- detachment of bacteria bound to collagen [1]: no effect

Molecule: CN(CC(=O)O)C(=N)N [creatine]
- detachment of bacteria bound to collagen [1]: ineffective

Molecule: O=C(O)CC(O)(CC(=O)O)C(=O)O [citric acid]
- detachment of bacteria bound to collagen [1]: no effect

Molecule: N=C(N)NCCC[C@H](N)C(=O)O [Arginine, arginine]
- detachment of bacteria bound to collagen [1]: equally good or better than 1 M guanidine-HCl
- Surface RU removed from the sensor surface (E. coli 0157; CFU 0): 99 RU
- Surface RU removed from the sensor surface (E. coli 0157; CFU 10E + 3): 237 RU
- Surface RU removed from the sensor surface (E. coli 0157; CFU 10E + 4): 249 RU
- Surface RU removed from the sensor surface (E. coli 0157; CFU 10E + 5): 275 RU
- Surface RU removed from the sensor surface (E. coli 0157; CFU 10E + 6): 299 RU
- Surface RU removed from the sensor surface (E. coli 0157; CFU 10E + 7): 405 RU
- Surface RU removed from the sensor surface (Salmonella; CFU 0): 75 RU
- Surface RU removed from the sensor surface (Salmonella; CFU 10E + 4): 20 RU
- Surface RU removed from the sensor surface (Salmonella; CFU 10E + 5): 32 RU
- Surface RU removed from the sensor surface (Salmonella; CFU 10E + 6): 48 RU
- Surface RU removed from the sensor surface (Salmonella; CFU 10E + 7): 96 RU

Molecule: collagen
- affinity constant of collagen to Salmonella binding, mean [2]: 2.75e+07 M⁻¹
- affinity constant of collagen to E. coli binding, mean (E. coli O157:H7 surface): 3e+08 M⁻¹
- dissociation constants of bacteria and collagen binding (E. coli and Salmonella): 10^−8 to 10^−9 KDMole
- affinity constants of collagen to E. coli and Salmonella binding, range (E. coli and Salmonella; 12 trials (each)): 10^7 to 10^8 M^−1

Molecule: Cl [HCl]
- detachment of bacteria bound to collagen [1]: no effect

Molecule: N=C(N)N [Guanidine, guanidine]
- detachment of bacteria bound to collagen [1]: very effective detachment agent
- Surface RU removed from the sensor surface (Salmonella; CFU 0): −137 RU
- Surface RU removed from the sensor surface (Salmonella; CFU 10E + 4): −100 RU
- Surface RU removed from the sensor surface (Salmonella; CFU 10E + 5): −54 RU
- Surface RU removed from the sensor surface (Salmonella; CFU 10E + 6): −22 RU
- Surface RU removed from the sensor surface (Salmonella; CFU 10E + 7): −32 RU
- bactericidal effect (bacteria): bactericidal
